Here are results for two compounds from patent US20180153870A1, “BIPERIDEN FOR TREATING CANCER” (Universitätsklinikum Hamburg-Eppendorf, priority 2015, published 2018).

In assay [1] the test system is L3.6pl res. Description: MTT proliferation assay, L3.6pl res (gemcitabine-resistant). The format is cell-based, human. The procedure: The cell lines used for the proliferation assays were cultured in different media. The cell lines Pan-1, Panc-2 and BxPC3, which have been derived from the human ductal pancreatic adenocarcinoma (PDAC), were cultured in Dulbecco's modified Eagle medium (DMEM) (Sigma), that was supplemented with 1% penicillin/streptomycin (Life technologies/GIBCO 15140-122) and 10% fetal bovine serum (Life technologies/GIBCO 100500-064). The cell line L3.6pl was cultured in RPMI 1640 medium (Life technologies/GIBCO 72400-21) that was supplemented with 1% penicillin/streptomycin and 10% fetal bovine serum. A sub-clone of the cell line L3.6pl, that was designated L3.6pl res, was resistant to gemcitabine and was also cultured in RPMI 1640 medium (Life technologies/GIBCO 72400-21) that was supplemented with 1% penicillin/streptomycin, 10% fetal bovine serum and 2 μM gemcitabine (GEMZAR, Lily). The human immortalized, non-malignant cell line of the ductal pancreatic epithelium (HPDE) was cultured in keratinocyte-SFM (Life technologies/GIBCO) that was supplemented with 10% fetal bovine serum, 1% penicillin/streptomycin and 1% epidermal growth factor (EGF).
The proliferation rates of the cell lines were determined after stimulation with (i) biperiden, (ii) mepazine, and (iii) stimulation with both active ingredients. For this purpose, cells were seeded in plates with 96 wells at 5000 cells per well and incubated overnight at 37° C. and 5% CO2. Next morning, the blanket values were measured at 490 nm in an ELISA reader (FLUOstar Omega, BMG LABTECH) after the addition of 100 μL medium and 20 μL MTT substrate (CellTiter 96 AQueous One Solution Cell Proliferation Assay, Promega). Biperiden was added in increasing concentrations (3.71 μg/ml, 11.1 μg/ml und 29.6 μg/ml) in the form of solutions of biperiden hydrochloride (B5311 SIGMA-Aldrich, USA) and DMSO. […] The ex-tinction was measured every 24 hours during a period of 72 hours.
(§1) The normal distribution of the results was analyzed by Kolgomorov-Smirnov test and Shapiro-Wilk test. Non-parametric variables were analyzed using the Mann-Whitney-U test. […]

Assay [2] concerns the target T1, MALT1 (Homo sapiens, UniProt Q9UDY8).
T1 construct: endogenous in cells; host or cells: Panc-1, Panc-2, HPDE, Jurkat (PMA-stimulated and non-stimulated)
T1 sequence (Q9UDY8 1-824): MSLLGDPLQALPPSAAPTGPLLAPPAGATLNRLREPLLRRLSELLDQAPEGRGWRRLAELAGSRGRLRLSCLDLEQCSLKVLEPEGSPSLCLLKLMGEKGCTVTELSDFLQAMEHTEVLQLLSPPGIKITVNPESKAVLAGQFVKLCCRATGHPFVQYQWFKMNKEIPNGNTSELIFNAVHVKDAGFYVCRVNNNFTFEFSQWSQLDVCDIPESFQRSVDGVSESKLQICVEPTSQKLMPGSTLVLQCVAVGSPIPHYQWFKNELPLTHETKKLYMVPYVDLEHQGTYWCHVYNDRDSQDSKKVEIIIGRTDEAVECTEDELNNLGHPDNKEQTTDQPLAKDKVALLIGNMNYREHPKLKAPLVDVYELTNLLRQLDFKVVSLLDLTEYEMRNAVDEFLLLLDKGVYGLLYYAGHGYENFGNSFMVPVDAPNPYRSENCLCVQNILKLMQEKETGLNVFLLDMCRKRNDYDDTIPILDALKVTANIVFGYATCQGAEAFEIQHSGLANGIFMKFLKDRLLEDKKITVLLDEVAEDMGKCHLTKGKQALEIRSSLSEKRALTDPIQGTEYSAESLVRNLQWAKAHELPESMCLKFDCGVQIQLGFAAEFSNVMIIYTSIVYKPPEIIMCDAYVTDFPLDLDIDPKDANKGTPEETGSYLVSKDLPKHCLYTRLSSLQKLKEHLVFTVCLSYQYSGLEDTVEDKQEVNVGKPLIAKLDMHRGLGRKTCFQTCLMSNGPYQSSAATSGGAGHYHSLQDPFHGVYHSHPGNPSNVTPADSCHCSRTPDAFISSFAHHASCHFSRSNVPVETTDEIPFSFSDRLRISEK
Description: MALT1 activity in treated cells (immunoprecipitation, AC-LRSR-AMC cleavage). Type of assay: cell-based. The procedure:
The MALT1 activity was measured in the pancreatic cancer cells Panc-1, Panc-2 and in the reference line HPDE as well as in the PMA-stimulated and non-stimulated Jurkat cells. In order to examine whether mepazine, biperiden or a combination of both active ingredients influence the MALT1 activity and pancreatic cancer cells, an assay was performed as described in Nagel et al.. For this purpose, the pancreatic cancer cell lines and the reference cell lines were treated with biperiden (29.6 μg/ml), mepazine (25 μM), a combination of both active ingredients (15 μM mepazine+3.71 μg/ml biperiden) or only with DMSO. The cells were subsequently lysed and precipitated with mouse anti-MALT1 antibody (SC-76677, Santa Cruz, Calif., USA) as previously described by Gungor et al.. As described in the protocol, the fluorogenic substrate AC-LRSR-AMC, which was derived from the C-terminal BCL 10 cleavage site, was used as a substrate for MALT1. The cleavage activity of MALT1 was subsequently determined as relative fluorescence units by a microtiter plate reader (FLUOstar, Omega, BMG Labtech).
The results were determined after 24 hours of incubation with mepazine, biperiden, or a combination of both active ingredients. It was shown that pancreatic cancer cell lines as well as non-malignant, immortalized HPDE cell lines had constitutive MALT1 activity, although to a different extent. As a reference, a non-stimulated Jurkat cell line and a Jurkat cell line that was activated with PMA were examined.

The subject of assay [3] is L3.6pl wt. Kind of assay: MTT proliferation assay, L3.6pl wt. Type of assay: cell-based, human. As to the method: The cell lines used for the proliferation assays were cultured in different media. The cell lines Pan-1, Panc-2 and BxPC3, which have been derived from the human ductal pancreatic adenocarcinoma (PDAC), were cultured in Dulbecco's modified Eagle medium (DMEM) (Sigma), that was supplemented with 1% penicillin/streptomycin (Life technologies/GIBCO 15140-122) and 10% fetal bovine serum (Life technologies/GIBCO 100500-064). The cell line L3.6pl was cultured in RPMI 1640 medium (Life technologies/GIBCO 72400-21) that was supplemented with 1% penicillin/streptomycin and 10% fetal bovine serum. […]
The proliferation rates of the cell lines were determined after stimulation with (i) biperiden, (ii) mepazine, and (iii) stimulation with both active ingredients. […] Next morning, the blanket values were measured at 490 nm in an ELISA reader (FLUOstar Omega, BMG LABTECH) after the addition of 100 μL medium and 20 μL MTT substrate (CellTiter 96 AQueous One Solution Cell Proliferation Assay, Promega). […] The ex-tinction was measured every 24 hours during a period of 72 hours.
as §1
On the technique in general: Tetrazolium dyes change colour on reduction, which living cells bring about.

For `OC(CCN1CCCCC1)(c1ccccc1)C1CC2C=CC1C2` (centres unmarked) [biperiden], the “reduction of proliferation rate” value in assay [1] (29.6 μg/ml biperiden, p=0.022) was determined as 71.6%. Also, the MALT1 activity result in assay [2] (HPDE, 29.7 μg/ml biperiden, 10, 30 and 60 minutes after incubation with the MALT1 substrate, significantly (p=0.002; p=0.005; p=0.012)) was “reduced the MALT1 activity”; in assay [2] (Panc-1, 29.7 μg/ml biperiden), “visibly reduced the MALT1 activity; however, this effect was not statistically significant”; in assay [2] (Panc-2, 29.7 μM biperiden, immediately and 10 minutes after addition of the MALT1 substrate, statistically significant (p=0.011; p=0.031)) it was “the MALT1 activity was reduced”. Further, the “reduction in the proliferation rate” value in assay [3] (29.7 μg/ml biperiden, p=0.02) is given as 96.4%.
Turning to `CN1CCCC(CN2c3ccccc3Sc3ccccc32)C1` (centres unmarked) [mepazine], the “reduction of proliferation rate” value in assay [1] (15 μM mepazine, p=0.031) was 69.4%. Further, the proliferation entry in assay [1] (25 μM mepazine, p=0.002) was “completely stopped”. Further, the MALT1 activity result is reported as “did not influence the MALT1 activity” in assay [2] (HPDE, 25 μM mepazine, 24 hours of incubation); “the MALT1 activity was reduced” in assay [2] (Panc-1, 25 μM mepazine, immediately after addition of the MALT1 substrate and 10, 30, 60 and 90 minutes thereafter, statistically significant); “reduced the MALT1 activity, whereas this reduction however was not statistically significant” in assay [2] (Panc-2, 25 μM mepazine). The “reduction in the proliferation rate” value in assay [3] (25 μM mepazine, p=0.004) worked out at 97.9%.
